Experimental data published in patent publication EP0428423A2, “Aryloxy alkyl benzenes, processes for their preparation and pharmaceutical compositions containing them” (LIPHA S.A., priority 1989, dated 1991).

How the values were obtained:
COTRANSPORT Na-K = biological target: T1, COTRANSPORT Na-K (Homo sapiens, UniProt P55011); experiment: Na-K cotransport of human erythrocytes; type: cell-based, ERYTHROCYTES HUMAINS
T1 construct: systèmes de transport du sodium et du potassium des érythrocytes humains; endogenous in cells; host or cells: human erythrocytes
T1 sequence (P55011 1-1212): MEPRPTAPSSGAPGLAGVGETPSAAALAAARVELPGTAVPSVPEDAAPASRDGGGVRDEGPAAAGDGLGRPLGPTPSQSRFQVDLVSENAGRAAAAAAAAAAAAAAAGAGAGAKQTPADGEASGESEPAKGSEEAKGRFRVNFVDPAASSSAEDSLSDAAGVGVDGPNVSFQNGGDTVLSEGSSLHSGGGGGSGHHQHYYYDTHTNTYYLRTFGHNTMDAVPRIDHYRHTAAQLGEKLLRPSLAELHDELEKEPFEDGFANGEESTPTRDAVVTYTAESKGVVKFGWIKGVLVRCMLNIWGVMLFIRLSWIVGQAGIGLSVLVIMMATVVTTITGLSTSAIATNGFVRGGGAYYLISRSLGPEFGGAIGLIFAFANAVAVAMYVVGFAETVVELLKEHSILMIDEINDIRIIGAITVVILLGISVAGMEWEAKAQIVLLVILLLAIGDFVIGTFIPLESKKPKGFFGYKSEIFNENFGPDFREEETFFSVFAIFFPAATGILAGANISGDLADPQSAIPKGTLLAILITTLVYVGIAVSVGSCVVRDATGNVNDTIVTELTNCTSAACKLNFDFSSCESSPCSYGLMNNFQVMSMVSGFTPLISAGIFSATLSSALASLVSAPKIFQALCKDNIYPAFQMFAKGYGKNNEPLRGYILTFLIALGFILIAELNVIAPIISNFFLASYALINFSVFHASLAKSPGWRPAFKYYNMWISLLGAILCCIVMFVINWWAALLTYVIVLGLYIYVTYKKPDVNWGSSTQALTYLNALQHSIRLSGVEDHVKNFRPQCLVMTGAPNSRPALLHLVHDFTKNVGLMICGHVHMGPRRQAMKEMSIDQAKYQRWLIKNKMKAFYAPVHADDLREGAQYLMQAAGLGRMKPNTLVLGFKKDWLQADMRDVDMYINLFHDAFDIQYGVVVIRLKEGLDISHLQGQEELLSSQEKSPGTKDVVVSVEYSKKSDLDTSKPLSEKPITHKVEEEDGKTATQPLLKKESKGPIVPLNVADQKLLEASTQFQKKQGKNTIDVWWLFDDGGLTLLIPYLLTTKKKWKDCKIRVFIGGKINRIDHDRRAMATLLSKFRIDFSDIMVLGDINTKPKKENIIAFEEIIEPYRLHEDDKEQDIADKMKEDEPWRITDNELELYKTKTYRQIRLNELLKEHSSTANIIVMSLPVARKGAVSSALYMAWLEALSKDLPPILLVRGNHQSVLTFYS
Text: Cet effet a été étudié selon la méthodologie décrite par G. GARAY et coll. dans Naunyn-Schmidberg's Arch. Pharmakol. […] Pharm.

ECHANGEUR D'ANIONS = biological target: T2, ECHANGEUR D'ANIONS (Homo sapiens, UniProt P02730); experiment: Anion exchanger of human erythrocytes; type: cell-based, ERYTHROCYTES HUMAINS; details: read-out: EFFET SUR L'ECHANGEUR D'ANIONS IC 50
T2 construct: systèmes de transport du sodium et du potassium des érythrocytes humains; endogenous in cells; host or cells: human erythrocytes
T2 sequence (P02730 1-911): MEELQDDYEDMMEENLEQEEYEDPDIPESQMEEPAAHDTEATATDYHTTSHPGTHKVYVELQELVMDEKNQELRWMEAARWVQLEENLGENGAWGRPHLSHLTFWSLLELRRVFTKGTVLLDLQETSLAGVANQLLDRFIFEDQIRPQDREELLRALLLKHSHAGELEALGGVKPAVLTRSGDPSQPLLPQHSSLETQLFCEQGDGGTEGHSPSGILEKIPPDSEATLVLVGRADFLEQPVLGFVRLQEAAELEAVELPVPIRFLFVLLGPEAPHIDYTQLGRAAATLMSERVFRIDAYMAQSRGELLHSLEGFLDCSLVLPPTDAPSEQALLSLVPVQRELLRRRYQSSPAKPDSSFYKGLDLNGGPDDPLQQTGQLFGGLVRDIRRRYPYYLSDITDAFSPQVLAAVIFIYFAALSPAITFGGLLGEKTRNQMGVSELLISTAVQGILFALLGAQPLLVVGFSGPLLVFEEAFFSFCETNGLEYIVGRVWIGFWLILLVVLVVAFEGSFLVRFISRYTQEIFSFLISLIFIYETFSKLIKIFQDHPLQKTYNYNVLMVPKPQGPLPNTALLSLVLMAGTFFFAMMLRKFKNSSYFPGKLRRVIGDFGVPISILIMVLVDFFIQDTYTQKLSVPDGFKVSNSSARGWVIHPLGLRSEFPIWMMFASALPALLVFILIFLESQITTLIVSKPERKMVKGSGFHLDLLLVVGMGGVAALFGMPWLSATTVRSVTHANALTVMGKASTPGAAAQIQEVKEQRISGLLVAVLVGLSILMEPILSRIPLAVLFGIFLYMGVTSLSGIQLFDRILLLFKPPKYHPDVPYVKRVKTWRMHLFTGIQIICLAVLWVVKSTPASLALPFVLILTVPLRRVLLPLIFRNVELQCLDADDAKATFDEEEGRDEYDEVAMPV
Text: Cet effet a été étudié selon la méthodologie décrite par G. GARAY et coll. dans Naunyn-Schmidberg's Arch. Pharmakol. 334 (1986) 202-209 et dans Bioch. Pharm. 33 (1984) 2013-2020.

[1] = system: plasmas riches en plaquettes provenant de sang de rat; experiment: Platelet anti-aggregation in vitro, ADP-induced (Born aggregometer); type: cell-based; details: in vitro, aggregating agent ADP, rat platelet-rich plasma, 37°, M not defined in the text, mM printed only in the TICLOPIDINE line; for IC50: read-out: M à 50
Protocol: Les études ont été réalisées sur des plasmas riches en plaquettes provenant de sang de rat, l'agrégation étant induite par addition d'acide Adénosine diphosphorique. Les courbes néphélométriques d'agrégation sont obtenues en utilisant un agrégomètre de type BORN, le plasma étant placé en incubation à 37° avec agitation continue de 1100 t/mn (cf. BORN G.V.R et CROSS J. - J. Physiol. 168 (1962) 178.

Structure (SMILES) | IC50 [1] | further results
CCCCNc1cc(C(=O)O)cc(S(N)(=O)=O)c1Oc1ccccc1 [BUMETANIDE, reference compound] |  | IC50 (COTRANSPORT Na-K): 0.66 µM; IC50 (ECHANGEUR D'ANIONS): 300 µM
Oc1ccccc1CCOc1ccccc1 [Ex 12] | 1.6 mM | 
CC(C)(C)c1ccc(O)c(CCOc2ccc(F)cc2)c1 [Ex 52] | 0.75 mM | 
Cc1ccc(O)c(CCOc2ccc(F)cc2)c1 [Ex 54] |  | M à 50 [1]: inactif
Oc1ccccc1CCOc1cccc2ccccc12 [Ex 58] | 0.6 mM | 
C=CCOc1ccc(CCOc2ccccc2)c(O)c1 [Ex 64] | 0.5 mM | 
Cc1ccc(CCOc2ccc(F)cc2)c(O)c1C [Ex 78] | 0.7 mM | 
CC(C)c1ccc(O)c(CCOc2ccc(F)cc2)c1 [Ex 82] | 0.55 mM | 
Oc1ccc(OCCc2ccccc2O)cc1 [Ex 84] | 0.75 mM | 
Oc1ccc(O)c(CCOc2ccc(F)cc2)c1 [Ex 102] | 0.7 mM | 

Second part, led by results:

IC50 [1] | Structure (SMILES) | further results
1 mM | CC(=O)Oc1c(CCOc2ccc(F)cc2)cccc1C(C)C [Ex 81] | 
1.55 mM | CCCc1cccc(CCOc2ccc(F)cc2)c1O [Ex 86] | 
0.5 mM | CCOC(=O)c1ccc(OCCc2ccccc2O)cc1 [Ex 90] | 
1.1 mM | Oc1ccc(Oc2ccccc2)cc1CCOc1ccc(F)cc1 [Ex 100] | 
0.6 mM | O=C(Oc1ccccc1CCOc1ccc(F)cc1)c1cccnc1 [Ex 129] | 
